From patent publication US4933104A, “Anthraquinone derivative as a dichroic dye for a liquid-crystal material, liquid-crystal material and an electrooptical device” (priority 1986, dated 1990)
Several values for one entry are separate records, joined by “and”; a condition that tells them apart may be missing. Identical values can stand only once.

Experiments:
Type in all cases: physicochemical
[1] = limiting solubility in liquid-crystalline mixtures at 20° C.; details: for Solubility (limiting), known derivatives: Table 6, derivatives of SU 1089084
[2] = λmax of the long-wave absorption band of the dye; details: Table 7; two values = two maxima
Procedure: A weighed sample of one or several anthraquinone derivatives of general formula /1/ is dissolved upon heating to 60° C. in a liquid-crystalmatrix and then cooled to 20° C.

[3] = negative dichroism S in a liquid-crystalline mixture; details: liquid-crystalline mixture ZK-807
Procedure: (§1) Table 1 given below lists the values of negative dichroism of the anthraquinone derivative of general formula /1/ for examples 1-30 in a liquid-crystalline mixture ZK-807; Table 2 illustrates physico-chemical characteristics, and Table 3--limiting solubility in liquid-crystalline mixtures (ZK-807, ZLI-1840, 3010, SP-586, ZK-1282) at 20° C.

[4] = λmax of the long-wave absorption band of the dye; details: Table 1 / Examples; several values = several maxima
Procedure: as §1

## CCCCCCc1ccc(C(=O)Nc2ccc(O)c3c2C(=O)c2c(NC(=O)c4ccc(CCCCCC)cc4)ccc(O)c2C3=O)cc1 [No. 9, Table 6, reference compound]
[1]; ZK-807, 20° C.
  Solubility (limiting), known derivatives: 0.1 mass %
[2]
  λmax, known derivatives: 562 nm

## CCCCCC1CCC(c2ccc(C(=O)Nc3ccc(O)c4c3C(=O)c3c(NC(=O)c5ccc(C6CCC(CCCCC)CC6)cc5)ccc(OC(=O)c5ccc(C6CCC(CCCCC)CC6)cc5)c3C4=O)cc2)CC1 (stereo not drawn) [No. 10, Table 6, reference compound]
[1]; ZK-807, 20° C.
  Solubility (limiting), known derivatives: 0.2 mass %
[1]; ZLI-1840, 20° C.
  Solubility (limiting), known derivatives: 0.6 mass %
[2]
  λmax, known derivatives: 554 nm

## CCCCCCc1ccc(C(=O)Nc2ccc(NC(=O)c3ccc(CCCCCC)cc3)c3c2C(=O)c2ccccc2C3=O)cc1 [No. 4, Table 6, reference compound]
[1]; ZK-807, 20° C.
  Solubility (limiting), known derivatives: 2.3 mass %
[1]; ZLI-1840, 20° C.
  Solubility (limiting), known derivatives: 0.6 mass %
[2]
  λmax, known derivatives: 512 nm

## CCCCc1ccc(C(=O)Nc2ccc(O)c3c2C(=O)c2c(NC(=O)c4ccc(CCCC)cc4)ccc(OC(=O)c4ccc(CCCC)cc4)c2C3=O)cc1 [No. 8, Table 6, reference compound]
[1]; ZK-807, 20° C.
  Solubility (limiting), known derivatives: 1.0 mass %
[1]; ZLI-1840, 20° C.
  Solubility (limiting), known derivatives: 0.3 mass %
[2]
  λmax, known derivatives: 535 nm

## CCCCCCc1ccc(C(=O)Nc2cc(CCCC)c(OC(=O)c3ccc(CCCCCC)cc3)c3c2C(=O)c2c(NC(=O)c4ccc(CCCCCC)cc4)cc(CCCC)c(OC(=O)c4ccc(CCCCCC)cc4)c2C3=O)cc1 [Compound 7]
[3]
  negative dichroism S: -0.26
[4]
  λmax: 434 nm and 455 nm
[1]; ZK-807, 20° C.
  Solubility (limiting): 5.0 mass %
[1]; ratio to known derivative, No. 2, 7 and 6 of Table 3 vs No. 1, 5 and 6 of Table 6
  solubility exceeds the solubility of the known analogue: 10 times

## CCCCc1ccc(C(=O)Nc2ccc(NC(=O)c3ccc(CCCC)cc3)c3c2C(=O)c2ccccc2C3=O)cc1 [No. 3, Table 6, reference compound]
[1]; ZK-807, 20° C.
  Solubility (limiting), known derivatives: 2.0 mass %
[1]; ZLI-1840, 20° C.
  Solubility (limiting), known derivatives: 0.3 mass %
[2]
  λmax, known derivatives: 508 nm

## CCCCCCc1ccc(C(=O)Nc2ccc(OC(=O)c3ccc(CCCCCC)cc3)c3c2C(=O)c2c(NC(=O)c4ccc(CCCCCC)cc4)ccc(OC(=O)c4ccc(CCCCCC)cc4)c2C3=O)cc1 [No. 5, Table 6, reference compound]
[1]; ZK-807, 20° C.
  Solubility (limiting), known derivatives: 0.5 mass %
[1]; ZLI-1840, 20° C.
  Solubility (limiting), known derivatives: 0.1 mass %
[2]
  λmax, known derivatives: 468 nm

## CCCCCc1cc(NC(=O)c2ccc(CCCC)cc2)c2c(c1OC(=O)c1ccc(CCCC)cc1)C(=O)c1c(OC(=O)c3ccc(CCCC)cc3)c(CCCCC)cc(NC(=O)c3ccc(CCCC)cc3)c1C2=O [Compound 14]
[3]
  negative dichroism S: -0.32
[4]
  λmax: 458 nm and 470 nm
[1]; 3010, 20° C.
  Solubility (limiting): 4.46 mass %
[1]; SP-586, 20° C.
  Solubility (limiting): 3.78 mass %
[1]; ZK-807, 20° C.
  Solubility (limiting): 9.5 mass %
[1]; ZK-1282, 20° C.
  Solubility (limiting): 4.0 mass %
[1]; ZLI-1840, 20° C.
  Solubility (limiting): 3.8 mass %

## CCCCCC1CCC(c2ccc(C(=O)Nc3cc(CCCC)c(OC(=O)CCC)c4c3C(=O)c3c(NC(=O)c5ccc(C6CCC(CCCCC)CC6)cc5)cc(CCCC)c(OC(=O)CCC)c3C4=O)cc2)CC1 (stereo not drawn) [Compound 12]
[3]
  negative dichroism S: -0.35
[4]
  λmax: 473 nm
[1]; 3010, 20° C.
  Solubility (limiting): 1.82 mass %
[1]; ZK-807, 20° C.
  Solubility (limiting): 5.2 mass %

## CCCCc1ccc(C(=O)Nc2ccc(O)c3c2C(=O)c2c(NC(=O)c4ccc(CCCC)cc4)ccc(O)c2C3=O)cc1 [No. 7, Table 6, reference compound]
[1]; ZK-807, 20° C.
  Solubility (limiting), known derivatives: 0.1 mass %
[2]
  λmax, known derivatives: 560 nm

## CCCCCC1CCC(c2ccc(C(=O)Nc3cc(CCCC)c(O)c4c3C(=O)c3c(OC(=O)c5ccc(C6CCC(CCCCC)CC6)cc5)c(CCCC)cc(NC(=O)c5ccc(C6CCC(CCCCC)CC6)cc5)c3C4=O)cc2)CC1 (stereo not drawn) [Compound 24]
[3]
  negative dichroism S: -0.33
[4]
  λmax: 563 nm and 617 nm
[1]; 3010, 20° C.
  Solubility (limiting): 6.0 mass %
[1]; ZK-807, 20° C.
  Solubility (limiting): 6.0 mass %
[1]; ZLI-1840, 20° C.
  Solubility (limiting): 5.5 mass %

## CCCCc1ccc(C(=O)Nc2ccc(OC(=O)c3ccc(CCCC)cc3)c3c2C(=O)c2c(NC(=O)c4ccc(CCCC)cc4)ccc(OC(=O)c4ccc(CCCC)cc4)c2C3=O)cc1 [No. 6, Table 6, reference compound]
[1]; ZK-807, 20° C.
  Solubility (limiting), known derivatives: 0.5 mass %
[2]
  λmax, known derivatives: 470 nm

## CCCCCC1CCC(c2ccc(C(=O)Nc3ccc(O)c4c3C(=O)c3c(NC(=O)c5ccc(C6CCC(CCCCC)CC6)cc5)cc(CCCC)c(O)c3C4=O)cc2)CC1 (stereo not drawn) [Compound 28]
[3]
  negative dichroism S: -0.32
[4]
  λmax: 564 nm and 605 nm
[1]; 3010, 20° C.
  Solubility (limiting): 1.1 mass %
[1]; SP-586, 20° C.
  Solubility (limiting): 0.8 mass %
[1]; ZK-807, 20° C.
  Solubility (limiting): 0.6 mass %
[1]; ZK-1282, 20° C.
  Solubility (limiting): 1.0 mass %
[1]; ZLI-1840, 20° C.
  Solubility (limiting): 1.0 mass %
